# Laboratory results: US7666608B2, “Methods for determining drug responsiveness” (The Trustees of the University of Pennsylvania, priority 2002, dated 2010)
# What was measured:
# human SAA1 promoter = assay: SAA1 promoter luciferase reporter construct in HepG2 cells; format: cell-based; conditions: HepG2, pGL2-SAA1pt
# Excerpt: The pGL2-SAA1pt construct was generated as follows. The proximal 3.1 kb of genomic sequence upstream of the human SAA1 transcription start site plus the full 37 bases of 5′UTR was amplified by polymerase chain reaction (PCR) from human genomic DNA (Roche Biomolecular) using forward and reverse primers, HSAA1PF (5′-GAATTCACGCGTTT-[…]-3′) (SEQ ID NO:10) and HSAAPR (5′-[…]-GCTGAGCTGCGGG-3′) (SEQ ID NO:11), that incorporate Mlu1 and Nco1 restriction sites, respectively. The product was digested with Mlu1 and Nco1 and directionally cloned into a pGL2 vector which had been modified to include an Nco1 site at the start of the luciferase coding sequence and contains the human SAA2 3′UTR (Longley et al. (1999) J. Immunol. 163:4537-45).
# Constructs pGL2-SAA1[0.7] and pGL2-SAA1[0.25] containing 704 and 233 bases of promoter sequence respectively, were generated from pGL2-SAA1pt by PCR using the forward primers 5′-[…]-CAGCCTTGACC-3′ (SEQ ID NO:12) and 5′-GAATTCACGCGTGGTCT-CCTGCCTG-3′ (SEQ ID NO:13) respectively, and the reverse primer HSAAPR.
# Human HepG2 hepatoma cells (ATCC) were cultured in DMEM containing 10% FCS, gentamycin, sodium pyruvate and non-essential amino acids (Gibco BRL). Cells were seeded into 24 well plates 24 hours prior to transfection using FuGENE (Roche Biomolecular) as described in Jensen et al. (2000) J. Immunol. 164:5277-86. Cells transfected with SAA promoter luciferase reporter constructs and renilla control plasmid, were incubated for 16 to 20 hours before replacement of culture medium with fresh medium alone or fresh medium containing 10 ng/ml cytokines and/or dexamethasone and/or RU486 (Mifepristone). IL-1 was purchased from Peprotech. IL-6 was obtained from AstraZeneca. Dexamethasone and RU486 were obtained from Sigma.
# (§1) Cells were harvested at various times post-treatment, washed in PBS and resuspended in Passive Lysis Buffer (Promega, Madison, Wis.). […] Each treatment was carried out in triplicate and the mean ratio of luciferase to renilla activity and standard deviations were calculated. […]
# human SAA2 promoter = assay: SAA2 promoter luciferase reporter construct in HepG2 cells; format: cell-based; conditions: HepG2, pGL2-SAA2pt, cytokines 10 ng/ml
# Excerpt: The pGL2-SAA2pt construct, which contains 1.2 kb of the human SAA2 promoter upstream of a luciferase reporter was generated as follows. A 1196 bp of the promoter region and 22 bp of the first exon of the human acute phase SAA2 gene was amplified by PCR with the introduction of MluI and XhoI restriction sites at the 5′ and 3′ ends respectively (5′ oligonucleotide: 5′ […]-TACTTCCT-′3′ (SEQ ID NO: 8); 3′ oligonucleotide: 5′-[…]-[…]-3′ (SEQ ID NO:9). The PCR product was subsequently cloned into the multiple-cloning site of the pGL2-Basic vector (Promega, Madison, Wis., USA) which is located upstream of a luciferase reporter gene.
# Constructs pGL2-SAA2[0.7] and pGL2-SAA2[0.25] containing 700 and 239 bases of promoter sequence respectively, were generated from pGL2-SAA2pt by PCR using the forward primers 5′-[…]-3′ (SEQ ID NO:14) and 5′-[…]-3′ (SEQ ID NO:15) respectively, and the reverse primer HSAAPR.
# Human HepG2 hepatoma cells (ATCC) were cultured in DMEM containing 10% FCS, gentamycin, sodium pyruvate and non-essential amino acids (Gibco BRL). […]
# as §1
compound,measurement,setting,value
"CC#C[C@]1(O)CC[C@H]2[C@@H]3CCC4=CC(=O)CCC4=C3[C@@H](c3ccc(N(C)C)cc3)C[C@@]21C [RU486, Mifepristone]",effect on cytokine driven SAA1 promoter transcriptional activity,"human SAA1 promoter; 10 nM RU486 alone with IL-1 plus IL-6, 4 h",no measurable effect
same,block of dexamethasone enhancement of cytokine induction of the SAA1 promoter,"human SAA1 promoter; 10 nM RU486 with 100 nM dexamethasone and IL-1 plus IL-6, 4 h",completely blocked
C[C@@H]1C[C@H]2[C@@H]3CCC4=CC(=O)C=C[C@]4(C)[C@@]3(F)[C@@H](O)C[C@]2(C)[C@@]1(O)C(=O)CO [dexamethasone],effect on the SAA1 promoter,"human SAA1 promoter; dexamethasone alone (50 nM), 3, 6, 9, 24 h",no effect
"IL-6: cytokine, obtained from AstraZeneca",kinetic profile of cytokine driven SAA2 promoter readout,"human SAA2 promoter; 3, 6, 9, 24 h",highest at 3 hours and decreased through 24 hours
same,induction of the SAA2 promoter,human SAA2 promoter; 3-24 h,moderately induced
